According to PubChem BioAssay (NCI):
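These data come from cells grown in 96-well plates and exposed to compound for 48 hours at five concentrations. Definition used: TGI = concentration required for complete inhibition of growth.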

Experiments:
Assay in all cases: DTP human tumour cell line panel, 48 h
[1] = system: EKVX NSCLC
[2] = system: K-562 leukemia
[3] = system: MCF7 breast
[4] = system: HT29 colon
[5] = system: NCI-H23 lung
[6] = system: MDA-N
[7] = system: DU-145 prostate
[8] = system: A498 renal
[9] = system: NCI/ADR-RES ovarian
[10] = system: SF-539 CNS
[11] = system: KM12 colon
[12] = system: RXF 393 renal
[13] = system: NCI-H522 lung
[14] = system: OVCAR-4 ovarian
[15] = system: SNB-19 CNS
[16] = system: HCT-116 colon
[17] = system: MDA-MB-435
[18] = system: MOLT-4 leukemia
[19] = system: LOX IMVI melanoma
[20] = system: SNB-75 CNS

`N#Cc1c(N)nc(SCc2ccccc2)c(C#N)c1-c1ccc(O)cc1` was tested, and the TGI [1] was 26.3 µM, the TGI [2] was 37.8 µM and the TGI [3] was 30.6 µM. The TGI [4] was 23.1 µM, the TGI [5] was 33.2 µM and the TGI [6] was 27.5 µM. It also gave a TGI [7] of 27.2 µM, a TGI [8] of 30.6 µM and a TGI [9] of 45.7 µM. It also gave a TGI [10] of 57.5 µM, a TGI [11] of 25.8 µM and a TGI [12] of 45.1 µM. It also gave a TGI [13] of 36.3 µM, a TGI [14] of 30.4 µM and a TGI [15] of 41.6 µM. It also gave a TGI [16] of 25.1 µM, a TGI [17] of 25.7 µM and a TGI [18] of 23.1 µM. The TGI [19] was 43 µM and the TGI [20] was 38.9 µM.
In the case of `CC(NP(=O)(c1ccccc1)c1ccccc1)c1ccccc1` (stereo unspecified), the TGI [1] is reported as greater than 100 µM, the TGI [2] is reported as greater than 100 µM and the TGI [3] is reported as greater than 100 µM. The TGI [4] was greater than 100 µM, the TGI [5] was greater than 100 µM and the TGI [6] was greater than 100 µM. For the same molecule, the TGI [7] was greater than 100 µM, the TGI [8] was greater than 100 µM and the TGI [9] was greater than 100 µM. It also gave a TGI [10] greater than 100 µM, a TGI [11] greater than 100 µM and a TGI [12] greater than 100 µM. For the same molecule, the TGI [13] was greater than 100 µM, the TGI [14] was greater than 100 µM and the TGI [15] was greater than 100 µM. For the same molecule, the TGI [16] was greater than 100 µM, the TGI [17] was greater than 100 µM and the TGI [18] was greater than 100 µM. It also gave a TGI [19] greater than 100 µM and a TGI [20] greater than 100 µM.
`CCOC(=O)[C@@H]1ON2O[C@@H](OC3CCCCC3c3ccccc3)C[C@H]3OC(=O)[C@@H]1C32` (stereo partly specified) gave a TGI [1] greater than 100 µM, a TGI [2] greater than 100 µM and a TGI [3] greater than 100 µM. The TGI [4] was greater than 100 µM, the TGI [5] was greater than 100 µM and the TGI [6] was greater than 100 µM. For the same molecule, the TGI [7] was greater than 100 µM, the TGI [8] was greater than 100 µM and the TGI [9] was greater than 100 µM. The TGI [10] was greater than 100 µM, the TGI [11] was greater than 100 µM and the TGI [12] was greater than 100 µM. It also gave a TGI [13] greater than 100 µM, a TGI [16] greater than 100 µM and a TGI [17] greater than 100 µM. For the same molecule, the TGI [18] was greater than 100 µM, the TGI [19] was greater than 100 µM and the TGI [20] was greater than 100 µM.
Molecule `CC1CC(=NC2CCCCC2)Nc2ccccc2N1Cc1ccccc1` (stereo unspecified) has a TGI [1] of 21 µM, a TGI [2] greater than 36.1 µM and a TGI [3] of 14.5 µM. The TGI [4] was 12.5 µM, the TGI [5] was 22.3 µM and the TGI [6] was 12.5 µM. It also gave a TGI [7] of 17 µM, a TGI [8] of 9.7 µM and a TGI [9] of 19.9 µM. For the same molecule, the TGI [10] was 22.5 µM, the TGI [11] was 17 µM and the TGI [12] was 10.5 µM. It also gave a TGI [13] of 13.6 µM, a TGI [14] of 20.2 µM and a TGI [15] of 24.2 µM. The TGI [16] was greater than 35.6 µM, the TGI [17] was 13.4 µM and the TGI [18] was 30 µM. The TGI [19] was 6.85 µM and the TGI [20] was 3.18 µM.
With `O=C1C=C(NCC(c2ccccc2)c2ccccc2)C(=O)c2ncccc21` the TGI [1] was 7.83 µM, the TGI [2] was 4.1 µM and the TGI [3] was 3.33 µM. The TGI [4] was 25.8 µM, the TGI [5] was 5.76 µM and the TGI [6] was 3.38 µM. The TGI [7] was 4.74 µM, the TGI [8] was 9.69 µM and the TGI [9] was 8.05 µM. For the same molecule, the TGI [10] was 8.55 µM, the TGI [11] was 16.5 µM and the TGI [13] was 3.57 µM. It also gave a TGI [14] of 7.29 µM, a TGI [15] of 9.62 µM and a TGI [16] greater than 23.7 µM. For the same molecule, the TGI [17] was 2.84 µM, the TGI [18] was 6.91 µM and the TGI [19] was 5.23 µM. The TGI [20] was 2.77 µM.
With `O=CC(O)C(O)C1OC(=O)c2cc(O)c(O)c(O)c2C2=C(O)C(O)=C3OC(=O)c4c(c(O)c(O)c5c4C3C2C(=O)O5)-c2c(cc(O)c(O)c2O)C(=O)OCC1O` (stereo unspecified) the TGI [1] was greater than 100 µM, the TGI [2] was 56.7 µM and the TGI [3] was 39.7 µM. The TGI [4] was 42.9 µM, the TGI [5] was greater than 100 µM and the TGI [6] was 41.1 µM. For the same molecule, the TGI [7] was greater than 100 µM, the TGI [8] was greater than 100 µM and the TGI [9] was greater than 100 µM. The TGI [11] was 31.2 µM, the TGI [12] was greater than 100 µM and the TGI [13] was 86.4 µM. It also gave a TGI [14] of 51.5 µM, a TGI [15] greater than 100 µM and a TGI [16] of 29 µM. The TGI [17] was 34.1 µM, the TGI [18] was 63.3 µM and the TGI [19] was 31.9 µM. The TGI [20] was greater than 100 µM.
For `CN(C)CCNC(=O)c1cccc2c1Oc1cccc([N+](=O)[O-])c1O2`, the TGI [2] was 45.5 µM, the TGI [3] was 40.6 µM and the TGI [4] was 33.5 µM. For the same molecule, the TGI [5] was 72.8 µM, the TGI [6] was 31.6 µM and the TGI [7] was 31.5 µM. It also gave a TGI [8] of 30.5 µM, a TGI [9] of 56.7 µM and a TGI [10] of 40.1 µM. The TGI [11] was 44.7 µM, the TGI [13] was 32.9 µM and the TGI [15] was greater than 100 µM. For the same molecule, the TGI [16] was 30.6 µM, the TGI [17] was 32.6 µM and the TGI [18] was 27.1 µM. The TGI [20] was 40.5 µM.
For `Cc1ccc2c(=O)c(-c3nnc(NC4CCCCC4)s3)c[nH]c2n1`, the TGI [1] was greater than 100 µM, the TGI [2] was greater than 100 µM and the TGI [3] was greater than 100 µM. The TGI [4] was greater than 100 µM, the TGI [5] was greater than 100 µM and the TGI [6] was greater than 100 µM. It also gave a TGI [7] greater than 100 µM, a TGI [8] greater than 100 µM and a TGI [9] greater than 100 µM. For the same molecule, the TGI [11] was greater than 100 µM, the TGI [12] was greater than 100 µM and the TGI [13] was greater than 100 µM. It also gave a TGI [14] greater than 100 µM, a TGI [15] greater than 100 µM and a TGI [16] greater than 100 µM. For the same molecule, the TGI [17] was greater than 100 µM, the TGI [18] was greater than 100 µM and the TGI [19] was greater than 100 µM.
Work on `CSc1ncc2c(C#N)c3[nH]c4ccccc4n3c(=O)c2n1` yielded a TGI [1] greater than 100 µM, a TGI [2] of 46 µM and a TGI [3] greater than 100 µM. It also gave a TGI [5] greater than 100 µM, a TGI [6] greater than 100 µM and a TGI [7] greater than 100 µM. It also gave a TGI [8] of 52.7 µM, a TGI [9] of 99.3 µM and a TGI [10] greater than 100 µM. For the same molecule, the TGI [11] was greater than 100 µM, the TGI [12] was 95.5 µM and the TGI [13] was greater than 100 µM. For the same molecule, the TGI [14] was greater than 100 µM, the TGI [15] was greater than 100 µM and the TGI [16] was 57.5 µM. It also gave a TGI [17] of 67 µM, a TGI [18] of 24.6 µM and a TGI [19] greater than 100 µM. The TGI [20] was greater than 100 µM.
In the case of `CN1C(=O)[C@H](c2c[nH]c3ccccc23)[C@H](c2c[nH]c3ccccc23)C1=O`, the TGI [1] is reported as greater than 100 µM, the TGI [2] is reported as greater than 69.5 µM and the TGI [3] is reported as greater than 100 µM. It also gave a TGI [4] greater than 83.4 µM, a TGI [5] greater than 65.1 µM and a TGI [6] greater than 100 µM. It also gave a TGI [7] greater than 100 µM, a TGI [9] greater than 85.9 µM and a TGI [10] greater than 54.3 µM. It also gave a TGI [11] greater than 100 µM, a TGI [12] greater than 90.6 µM and a TGI [13] greater than 100 µM. It also gave a TGI [14] of 50.6 µM, a TGI [15] greater than 100 µM and a TGI [16] greater than 59.1 µM. It also gave a TGI [17] greater than 77.6 µM, a TGI [18] greater than 77 µM and a TGI [19] of 37.8 µM. For the same molecule, the TGI [20] was greater than 92.8 µM.
With `CCOC(=O)CC(=O)Nc1cccc2sc3ncccc3c(=O)c12` the TGI [1] was greater than 100 µM, the TGI [2] was greater than 100 µM and the TGI [3] was greater than 100 µM. It also gave a TGI [4] greater than 100 µM, a TGI [5] greater than 100 µM and a TGI [6] greater than 100 µM. For the same molecule, the TGI [7] was greater than 100 µM, the TGI [9] was greater than 100 µM and the TGI [10] was greater than 100 µM. It also gave a TGI [11] greater than 100 µM, a TGI [12] of 35.8 µM and a TGI [13] greater than 100 µM. For the same molecule, the TGI [14] was greater than 100 µM, the TGI [15] was greater than 100 µM and the TGI [16] was greater than 100 µM. For the same molecule, the TGI [17] was greater than 100 µM, the TGI [18] was greater than 100 µM and the TGI [19] was greater than 100 µM. It also gave a TGI [20] greater than 100 µM.
With `C1=Nc2ccc(cc2)-c2ccc(cc2)N=Cc2ccc(cc2)OCc2cccc(n2)COc2ccc1cc2` the TGI [1] was greater than 100 µM, the TGI [2] was greater than 100 µM and the TGI [3] was greater than 100 µM. For the same molecule, the TGI [4] was greater than 100 µM, the TGI [5] was greater than 100 µM and the TGI [6] was greater than 100 µM. It also gave a TGI [7] greater than 100 µM, a TGI [8] greater than 100 µM and a TGI [9] greater than 100 µM. The TGI [10] was greater than 100 µM, the TGI [11] was greater than 100 µM and the TGI [12] was greater than 100 µM. The TGI [13] was greater than 100 µM, the TGI [14] was greater than 100 µM and the TGI [15] was greater than 100 µM. The TGI [16] was greater than 100 µM, the TGI [17] was greater than 100 µM and the TGI [18] was greater than 100 µM. It also gave a TGI [20] greater than 100 µM.
